Laboratory results as given in ChEMBL document CHEMBL1201862, “PubChem BioAssay data set” (2004).
Activity calls are given as the source filed them.

Tests used:
[1] = target: Interleukin-1 receptor-associated kinase 4 (Homo sapiens, UniProt Q9NWZ3); type: functional
[2] = target: Dual specificity protein kinase CLK4 (Homo sapiens, UniProt Q9HAZ1); type: functional
[3] = target: Cell division cycle 7-related protein kinase (Homo sapiens, UniProt O00311); type: functional;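 note: value obtained from a kinome-wide kinase panel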
Chain of Cell division cycle 7-related protein kinase (O00311 whole entry): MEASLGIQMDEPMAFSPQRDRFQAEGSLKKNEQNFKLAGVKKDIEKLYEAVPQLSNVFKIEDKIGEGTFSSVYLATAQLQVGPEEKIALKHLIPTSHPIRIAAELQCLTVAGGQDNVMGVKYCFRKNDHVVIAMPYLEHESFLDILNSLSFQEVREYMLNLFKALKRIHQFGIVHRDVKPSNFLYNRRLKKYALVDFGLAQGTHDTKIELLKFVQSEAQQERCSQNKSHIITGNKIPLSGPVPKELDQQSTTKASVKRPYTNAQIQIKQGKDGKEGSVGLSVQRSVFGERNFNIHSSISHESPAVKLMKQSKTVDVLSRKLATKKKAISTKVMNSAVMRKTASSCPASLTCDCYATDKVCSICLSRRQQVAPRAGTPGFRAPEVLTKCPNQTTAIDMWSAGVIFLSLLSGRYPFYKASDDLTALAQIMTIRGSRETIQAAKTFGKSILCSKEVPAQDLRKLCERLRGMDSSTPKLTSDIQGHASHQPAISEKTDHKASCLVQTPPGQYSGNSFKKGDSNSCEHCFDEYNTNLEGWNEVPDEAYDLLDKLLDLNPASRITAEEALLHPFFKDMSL

[4] = target: Homeodomain-interacting protein kinase 2 (Homo sapiens, UniProt Q9H2X6); type: functional;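 note: measured within a kinome-wide kinase profiling panel, HIPK2 being one panel member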
Chain of Homeodomain-interacting protein kinase 2 (Q9H2X6 whole entry): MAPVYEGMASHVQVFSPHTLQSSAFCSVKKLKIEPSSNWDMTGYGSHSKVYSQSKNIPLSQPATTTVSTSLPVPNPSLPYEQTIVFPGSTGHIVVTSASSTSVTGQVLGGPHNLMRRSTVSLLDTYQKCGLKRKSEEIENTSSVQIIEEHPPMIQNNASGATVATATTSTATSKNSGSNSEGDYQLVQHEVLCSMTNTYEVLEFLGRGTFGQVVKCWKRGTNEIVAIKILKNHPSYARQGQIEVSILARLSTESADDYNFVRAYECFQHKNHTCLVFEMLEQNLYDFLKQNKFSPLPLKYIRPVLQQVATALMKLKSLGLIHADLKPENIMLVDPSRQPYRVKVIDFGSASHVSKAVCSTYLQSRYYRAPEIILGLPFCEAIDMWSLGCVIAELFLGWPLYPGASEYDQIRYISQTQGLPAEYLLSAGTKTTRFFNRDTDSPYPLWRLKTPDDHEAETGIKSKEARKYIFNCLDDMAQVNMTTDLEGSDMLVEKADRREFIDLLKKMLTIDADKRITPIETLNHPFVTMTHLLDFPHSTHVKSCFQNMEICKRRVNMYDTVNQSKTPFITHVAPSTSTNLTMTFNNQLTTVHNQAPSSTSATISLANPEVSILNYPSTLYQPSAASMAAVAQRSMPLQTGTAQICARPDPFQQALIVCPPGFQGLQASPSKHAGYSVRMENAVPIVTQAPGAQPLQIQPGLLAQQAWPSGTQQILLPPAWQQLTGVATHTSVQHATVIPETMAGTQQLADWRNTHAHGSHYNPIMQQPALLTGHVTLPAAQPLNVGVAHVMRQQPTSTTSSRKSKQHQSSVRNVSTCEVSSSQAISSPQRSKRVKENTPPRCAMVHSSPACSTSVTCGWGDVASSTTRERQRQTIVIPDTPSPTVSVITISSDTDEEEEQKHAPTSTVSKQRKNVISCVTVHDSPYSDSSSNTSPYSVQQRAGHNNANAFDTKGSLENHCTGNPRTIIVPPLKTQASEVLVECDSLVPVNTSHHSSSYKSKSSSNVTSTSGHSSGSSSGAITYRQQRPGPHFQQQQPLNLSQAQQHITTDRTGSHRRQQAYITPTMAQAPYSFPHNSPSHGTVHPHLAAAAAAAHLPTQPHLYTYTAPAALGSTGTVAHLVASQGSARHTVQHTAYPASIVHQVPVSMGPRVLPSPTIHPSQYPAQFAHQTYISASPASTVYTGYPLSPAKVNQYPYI

[5] = target: cAMP-dependent protein kinase catalytic subunit alpha (Homo sapiens, UniProt P17612); type: functional
[6] = target: Glycogen synthase kinase-3 beta (Homo sapiens, UniProt P49841); type: functional;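 note: value comes from a broad kinome profiling panel, with GSK3B as the panel member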
[7] = target: Serine/threonine-protein kinase pim-1 (Homo sapiens, UniProt P11309); type: functional
[8] = target: MAP kinase-interacting serine/threonine-protein kinase 2 (Homo sapiens, UniProt Q9HBH9); type: functional
[9] = target: Mitogen-activated protein kinase kinase kinase kinase 4 (Homo sapiens, UniProt O95819); type: functional
LIM domain kinase 1 = LIM domain kinase 1 (Homo sapiens, UniProt P53667); assay: Navigating the Kinome. Panel member name: LIMK1; type: functional
[10] = target: Cyclin-dependent kinase 5 (Homo sapiens, UniProt Q00535); type: functional;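 note: CDK5 measured as one member of a kinase profiling panel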
Chain of Cyclin-dependent kinase 5 (Q00535 whole entry): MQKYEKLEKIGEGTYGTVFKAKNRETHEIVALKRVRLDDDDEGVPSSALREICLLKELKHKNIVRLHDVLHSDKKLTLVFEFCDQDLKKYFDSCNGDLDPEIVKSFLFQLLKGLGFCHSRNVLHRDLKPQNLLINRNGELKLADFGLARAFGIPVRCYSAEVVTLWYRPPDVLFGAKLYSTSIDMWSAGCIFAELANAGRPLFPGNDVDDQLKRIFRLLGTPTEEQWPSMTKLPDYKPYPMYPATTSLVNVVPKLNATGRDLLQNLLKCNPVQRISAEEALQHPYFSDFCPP

[11] = target: T1, Serine/threonine-protein kinase Chk1 (Homo sapiens, UniProt O14757); type: functional;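 note: measured as one member of a kinome-wide kinase profiling panel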
T1 sequence (O14757 whole entry): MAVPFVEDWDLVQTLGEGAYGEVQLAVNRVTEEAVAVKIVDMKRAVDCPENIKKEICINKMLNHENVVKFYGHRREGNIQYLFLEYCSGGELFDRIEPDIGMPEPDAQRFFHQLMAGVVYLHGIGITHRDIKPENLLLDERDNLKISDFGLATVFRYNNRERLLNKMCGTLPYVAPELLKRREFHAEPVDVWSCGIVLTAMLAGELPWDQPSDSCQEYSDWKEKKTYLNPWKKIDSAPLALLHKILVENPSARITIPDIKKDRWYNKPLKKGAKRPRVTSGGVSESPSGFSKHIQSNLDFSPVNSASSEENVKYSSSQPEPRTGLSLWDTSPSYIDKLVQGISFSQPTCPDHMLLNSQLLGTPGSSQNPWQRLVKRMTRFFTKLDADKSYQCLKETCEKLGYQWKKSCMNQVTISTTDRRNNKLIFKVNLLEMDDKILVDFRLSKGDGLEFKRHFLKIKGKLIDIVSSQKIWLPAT

[12] = target: DNA dC->dU-editing enzyme APOBEC-3G (Homo sapiens, UniProt Q9HC16); assay: inhibition of APOBEC3G ssDNA deamination – biochemical, fluorescence, single-stranded DNA substrate, SAR follow-up (AID 602136); type: functional; settings: read-out: IC50_Mean
[13] = target: DNA dC->dU-editing enzyme APOBEC-3A (Homo sapiens, UniProt P31941); assay: SAR analysis of small molecule inhibitors of APOBEC3A DNA Deaminase via a fluorescence-based single-stranded DNA deaminase assay.; type: functional; settings: read-out: IC50_Mean
Chain of DNA dC->dU-editing enzyme APOBEC-3A (P31941 whole entry): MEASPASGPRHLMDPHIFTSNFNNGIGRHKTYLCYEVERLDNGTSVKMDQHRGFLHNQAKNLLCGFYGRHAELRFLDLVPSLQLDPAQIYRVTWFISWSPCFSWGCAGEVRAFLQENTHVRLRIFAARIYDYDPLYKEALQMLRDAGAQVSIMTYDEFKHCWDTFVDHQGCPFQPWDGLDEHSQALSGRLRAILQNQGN

Prothrombin = Prothrombin (Bos taurus, UniProt P00735); assay: thrombin protease inhibitors – biochemical, fluorescence polarization, uHTS hits, dose response (AID 602369); type: functional
[14] = target: 26S proteasome non-ATPase regulatory subunit 14 (Homo sapiens, UniProt O00487); assay: inhibition of proteasome subunit RPN11 – biochemical, fluorescence polarization, uHTS hits, confirmation (AID 602368); type: functional
Chain of 26S proteasome non-ATPase regulatory subunit 14 (O00487 whole entry, the tested form may be a part): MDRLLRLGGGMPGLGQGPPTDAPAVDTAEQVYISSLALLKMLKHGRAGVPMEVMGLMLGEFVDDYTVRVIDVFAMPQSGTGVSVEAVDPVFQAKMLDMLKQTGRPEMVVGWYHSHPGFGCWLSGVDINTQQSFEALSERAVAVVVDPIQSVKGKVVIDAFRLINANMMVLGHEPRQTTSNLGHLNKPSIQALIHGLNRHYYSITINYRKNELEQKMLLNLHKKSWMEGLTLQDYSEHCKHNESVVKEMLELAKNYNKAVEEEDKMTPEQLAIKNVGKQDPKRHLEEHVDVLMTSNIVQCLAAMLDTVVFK

[15] = target: T2, RNA-binding protein pos-1 (Caenorhabditis elegans, UniProt G5EF15); assay: disruptors of C. elegans POS-1 RNA interaction – biochemical, fluorescence polarization, dose response (AID 1964);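 note: purified POS-1 fused to maltose binding protein made in E. coli; potency of compounds blocking POS-1 binding to fluorescent RNA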
T2 sequence (G5EF15 whole entry): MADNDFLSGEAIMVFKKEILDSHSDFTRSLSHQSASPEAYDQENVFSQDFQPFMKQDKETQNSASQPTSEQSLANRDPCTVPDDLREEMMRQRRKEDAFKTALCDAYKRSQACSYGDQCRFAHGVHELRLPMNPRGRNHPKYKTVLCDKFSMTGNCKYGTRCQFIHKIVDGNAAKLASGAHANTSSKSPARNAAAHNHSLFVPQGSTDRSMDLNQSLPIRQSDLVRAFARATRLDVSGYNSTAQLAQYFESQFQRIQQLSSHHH

[16] = target: T3, Zinc finger protein mex-5 (Caenorhabditis elegans, UniProt Q9XUB2); assay: potency of MEX-5 RNA-binding blockers – biochemical, C. elegans, fluorescence polarization, dose response (AID 1960)
T3 sequence (Q9XUB2 whole entry): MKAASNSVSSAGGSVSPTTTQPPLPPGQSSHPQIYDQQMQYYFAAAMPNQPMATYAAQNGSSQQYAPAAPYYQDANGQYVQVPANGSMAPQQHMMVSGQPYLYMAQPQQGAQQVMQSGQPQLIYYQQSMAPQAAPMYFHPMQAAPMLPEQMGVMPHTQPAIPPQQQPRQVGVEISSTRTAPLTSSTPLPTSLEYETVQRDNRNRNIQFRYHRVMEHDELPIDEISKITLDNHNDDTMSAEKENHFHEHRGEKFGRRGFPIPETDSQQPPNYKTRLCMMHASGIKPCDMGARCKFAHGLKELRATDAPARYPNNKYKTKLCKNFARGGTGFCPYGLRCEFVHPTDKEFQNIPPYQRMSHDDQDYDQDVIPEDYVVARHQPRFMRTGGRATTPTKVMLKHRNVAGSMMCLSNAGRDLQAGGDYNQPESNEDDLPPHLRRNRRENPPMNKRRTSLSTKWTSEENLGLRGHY

[17] = target: 72 kDa type IV collagenase (Homo sapiens, UniProt P08253); assay: Dose Response validation of uHTS RPN11 inhibitor hits using a MMP-2 Fluorescence assay.; type: functional
[18] = target: G protein-coupled receptor kinase 5 (Homo sapiens, UniProt P34947); assay: Navigating the Kinome. Panel member name: GPRK5; type: functional
Chain of G protein-coupled receptor kinase 5 (P34947 whole entry): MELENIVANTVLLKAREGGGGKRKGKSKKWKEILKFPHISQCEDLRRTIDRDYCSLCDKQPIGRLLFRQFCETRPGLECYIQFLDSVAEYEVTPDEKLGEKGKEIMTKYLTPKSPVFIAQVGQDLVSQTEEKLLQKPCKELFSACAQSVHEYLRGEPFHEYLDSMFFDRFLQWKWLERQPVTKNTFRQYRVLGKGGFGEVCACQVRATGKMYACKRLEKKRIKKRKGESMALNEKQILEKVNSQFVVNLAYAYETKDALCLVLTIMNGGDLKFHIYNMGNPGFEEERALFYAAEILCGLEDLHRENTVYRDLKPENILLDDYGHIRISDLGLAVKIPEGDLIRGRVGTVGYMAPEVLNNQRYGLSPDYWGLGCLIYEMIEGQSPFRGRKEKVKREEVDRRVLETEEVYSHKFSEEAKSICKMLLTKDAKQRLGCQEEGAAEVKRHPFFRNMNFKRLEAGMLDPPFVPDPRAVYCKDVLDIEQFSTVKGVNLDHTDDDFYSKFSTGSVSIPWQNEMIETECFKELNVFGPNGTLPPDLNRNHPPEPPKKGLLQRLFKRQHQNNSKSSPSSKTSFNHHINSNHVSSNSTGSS

[19] = target: Protein kinase C gamma type (Homo sapiens, UniProt P05129); type: functional
[20] = target: Serine/threonine-protein kinase D2 (Homo sapiens, UniProt Q9BZL6); type: functional;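 note: measured against PRKD2 as one member of a kinome-wide kinase profiling panel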
[21] = target: Mitogen-activated protein kinase kinase kinase 10 (Homo sapiens, UniProt Q02779); assay: Navigating the Kinome. Panel member name: MAP3K10; type: functional
[22] = target: MAP kinase-activated protein kinase 3 (Homo sapiens, UniProt Q16644); type: functional;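 note: value comes from a kinome-wide profiling panel in which MAPKAPK3 is one of the panel members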

Chain of Dual specificity protein kinase CLK4 (Q9HAZ1 whole entry): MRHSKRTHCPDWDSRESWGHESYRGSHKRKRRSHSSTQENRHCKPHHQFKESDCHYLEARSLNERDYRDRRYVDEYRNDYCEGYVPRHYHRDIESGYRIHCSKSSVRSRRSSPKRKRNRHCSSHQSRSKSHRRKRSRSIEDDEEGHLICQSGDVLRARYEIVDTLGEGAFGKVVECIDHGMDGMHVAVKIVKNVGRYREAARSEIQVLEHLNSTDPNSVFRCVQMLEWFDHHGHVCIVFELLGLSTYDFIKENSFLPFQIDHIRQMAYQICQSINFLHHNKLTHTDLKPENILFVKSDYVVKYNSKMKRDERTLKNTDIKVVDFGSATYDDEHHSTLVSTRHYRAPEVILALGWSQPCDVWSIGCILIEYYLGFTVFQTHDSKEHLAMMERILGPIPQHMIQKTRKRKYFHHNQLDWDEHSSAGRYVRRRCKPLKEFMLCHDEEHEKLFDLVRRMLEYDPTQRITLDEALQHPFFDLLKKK
Chain of Interleukin-1 receptor-associated kinase 4 (Q9NWZ3 whole entry): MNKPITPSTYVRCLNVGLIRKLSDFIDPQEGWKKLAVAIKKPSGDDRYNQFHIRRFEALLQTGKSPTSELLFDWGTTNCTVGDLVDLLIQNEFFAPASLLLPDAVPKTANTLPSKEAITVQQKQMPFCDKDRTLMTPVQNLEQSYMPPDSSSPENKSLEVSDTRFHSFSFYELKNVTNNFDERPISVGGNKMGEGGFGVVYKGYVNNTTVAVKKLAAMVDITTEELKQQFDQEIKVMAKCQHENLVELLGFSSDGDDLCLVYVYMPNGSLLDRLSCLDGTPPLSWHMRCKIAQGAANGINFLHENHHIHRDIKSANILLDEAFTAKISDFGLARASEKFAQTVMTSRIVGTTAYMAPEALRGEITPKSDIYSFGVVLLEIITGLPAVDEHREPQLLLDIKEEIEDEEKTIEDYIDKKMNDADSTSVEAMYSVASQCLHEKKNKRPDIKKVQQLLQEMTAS

SMILES: CC(C)(Nc1nccc(-c2c[nH]c3ncccc23)n1)c1ccccc1
- Ki [1]: 15.8 nM (active)
- Ki [2]: 3.16 nM (active)
- Ki [3]: 20 nM (active)
- Ki [4]: 316 nM (active)
- Ki [5]: 12.6 nM (active)
- Ki [6]: 126 nM (active)
- Ki [7]: 1260 nM (active)
- Ki [8]: 25.1 nM (active)
- Ki [9]: 15.8 nM (active)

SMILES: O=[N+]([O-])c1ccc2[nH]c(-c3ccco3)nc2c1
- Ki (LIM domain kinase 1): 3160 nM (active)
- Ki [2]: 1580 nM (active)
- Ki [10]: 2510 nM (active)
- Ki [11]: 2510 nM (active)

SMILES: CCn1c(=O)c2ccccc2n2c(COc3ccc4c(C(F)(F)F)cc(=O)oc4c3)nnc12
- IC50 [12]: > 99000 nM (inactive)
- IC50 [13]: > 99000 nM (inactive)

SMILES: O=C(N/N=C/c1ccc(-c2ccc([N+](=O)[O-])cc2)o1)c1cccnc1
- IC50 (Prothrombin): 19800 nM (active)
- IC50 [14]: 28600 nM (active)
- EC50 [15]: > 300000 nM (not active)
- EC50 [16]: 27400 nM (active)
- IC50 [17]: > 100000 nM (inactive)

SMILES: O=C(O)c1ccc(Nc2ncc3c(n2)-c2ccc(Cl)cc2C(c2c(F)cccc2F)=NC3)cc1 [MLN-8054]
- Ki [18]: 1000 nM (active)
- Ki [19]: > 7940 nM (inactive)
- Ki [20]: > 10000 nM (inactive)
- Ki [21]: > 3160 nM (inactive)
- Ki [22]: > 10000 nM (inactive)
